# According to patent publication US20100285959A1, “HERBICIDAL MIXTURES” (priority 2006, published 2010):
# Tests used:
# [1] = system: giant ragweed (AMBTR); test: Test 25 field trial, postemergence, growth as percent of control; format: in vivo, Ambrosia trifida; details: 14 DAA
# Text: (§1) Corn seeds (hybrid ‘Pioneer 31G96 RR’) were planted in mid spring season, 3.8 cm deep in a clay loam soil having 2% organic matter and a pH of 6.6. Plots were 6.1 m long by 3.0 m wide with rows spaced 76 cm apart. Seeds were spaced 15 cm apart within the rows. The field was managed using conventional tillage practices. […] Giant ragweed and Pennsylvania smartweed could only be evaluated 14 days after application. […] Results are the means of the three replicates. This growth inhibition data was converted to results in the form of “plant growth as a percent of control plant growth” using the calculation “100 minus growth inhibition”.
# (§2) When this form of Colby's Equation is used, if the observed effects on weeds are less than the expected values, the mixture is synergistic.
# [2] = system: corn (ZEAMD); test: as above; format: in vivo, Zea mays ssp. indentata
# Text: as §1, §2
# [3] = system: velvetleaf (ABUTH); test: as above; format: in vivo, Abutilon theophrasti
# Text: as §1, §2
# [4] = system: Pennsylvania smartweed (POLPY); test: as above; format: in vivo, Polygonum pensylvanicum; details: 14 DAA
# Text: as §1, §2
# [5] = system: common ragweed (AMBEL); test: as above; format: in vivo, Ambrosia artemisiifolia
# Text: as §1, §2
# [6] = system: common lambsquarters (CHEAL); test: as above; format: in vivo, Chenopodium album
# Text: as §1, §2
# [7] = system: redroot pigweed (AMARE); test: as above; format: in vivo, Amaranthus retroflexus
# Text: as §1, §2
# [8] = system: giant foxtail (SETFA); test: as above; format: in vivo, Setaria faberi
# Text: as §1, §2
# [9] = system: wild mustard (SINAR); test: Test 24 growth chamber, postemergence; format: in vivo, Sinapis arvensis; details: 17 DAA
# Method: (§3) Plants were treated postemergence at the 2-4 leaf growth stage, and each treatment was replicated three times. […] Plants were watered as needed. […] Results for barley and wheat are the means across varieties of the three replicates, and results for the weeds are the means of the three replicates.
# [10] = system: field poppy (PAPRH); test: Test 24 growth chamber, postemergence; format: in vivo, Papaver rhoeas; details: 17 DAA
# Method: as §3
# [11] = system: common lambsquarters (CHEAL); test: Test 24 growth chamber, postemergence; format: in vivo, Chenopodium album; details: 17 DAA
# Method: as §3
# [12] = system: field violet (VIOAR); test: Test 24 growth chamber, postemergence; format: in vivo, Viola arvensis; details: 17 DAA
# Method: as §3
# [13] = system: redroot pigweed (AMARE); test: Test 24 growth chamber, postemergence; format: in vivo, Amaranthus retroflexus; details: 17 DAA
# Method: as §3
# [14] = system: wild buckwheat (POLCO); test: Test 24 growth chamber, postemergence; format: in vivo, Polygonum convolvulus; details: 17 DAA
# Method: as §3
# [15] = system: common chickweed (STEME); test: Test 24 growth chamber, postemergence; format: in vivo, Stellaria media; details: 17 DAA
# Method: as §3
# [16] = system: wild chamomile (MATCH); test: Test 24 growth chamber, postemergence; format: in vivo, Matricaria chamomilla; details: 17 DAA
# Method: as §3
# [17] = system: Russian thistle (SASKR); test: Test 24 growth chamber, postemergence; format: in vivo, Salsola kali; details: 17 DAA
# Method: as §3
# [18] = system: galium (GALAP); test: Test 24 growth chamber, postemergence; format: in vivo, Galium aparine; details: 17 DAA
# Method: as §3
# [19] = system: kochia (KCHSC); test: Test 24 growth chamber, postemergence; format: in vivo, Kochia scoparia; details: 17 DAA
# Method: as §3
# [20] = Diflufenzopyr 30 g a.i./ha, 14 DAA
# [21] = Diflufenzopyr 30 g a.i./ha, 28 DAA
# [22] = Diflufenzopyr 30 g a.i./ha, 56 DAA
# [23] = Diflufenzopyr 45 g a.i./ha, 14 DAA
# [24] = Diflufenzopyr 45 g a.i./ha, 28 DAA
# [25] = Diflufenzopyr 45 g a.i./ha, 56 DAA
# [26] = Nicosulfuron 15 g a.i./ha, 14 DAA
# [27] = Nicosulfuron 15 g a.i./ha, 28 DAA
# [28] = Nicosulfuron 15 g a.i./ha, 56 DAA
compound,measurement,setting,value
C/C(=N\NC(=O)Nc1cc(F)cc(F)c1)c1ncccc1C(=O)O [Diflufenzopyr],AMBTR Obs (percent of control),[1]; Diflufenzopyr 45 g a.i./ha,75%
same,ZEAMD Obs (percent of control),[2]; [20],100%
same,ZEAMD Obs (percent of control),[2]; [21],83%
same,ZEAMD Obs (percent of control),[2]; [22],100%
same,ZEAMD Obs (percent of control),[2]; [23],100%
same,ZEAMD Obs (percent of control),[2]; [24],88%
same,ZEAMD Obs (percent of control),[2]; [25],100%
same,ABUTH Obs (percent of control),[3]; [20],28%
same,ABUTH Obs (percent of control),[3]; [21],58%
same,ABUTH Obs (percent of control),[3]; [22],33%
same,ABUTH Obs (percent of control),[3]; [23],15%
same,ABUTH Obs (percent of control),[3]; [24],55%
same,ABUTH Obs (percent of control),[3]; [25],40%
same,POLPY Obs (percent of control),[4]; Diflufenzopyr 30 g a.i./ha,30%
same,POLPY Obs (percent of control),[4]; Diflufenzopyr 45 g a.i./ha,35%
same,AMBEL Obs (percent of control),[5]; [20],60%
same,AMBEL Obs (percent of control),[5]; [21],73%
same,AMBEL Obs (percent of control),[5]; [22],83%
same,AMBEL Obs (percent of control),[5]; [23],57%
same,AMBEL Obs (percent of control),[5]; [24],60%
same,AMBEL Obs (percent of control),[5]; [25],75%
same,CHEAL Obs (percent of control),[6]; [20],50%
same,CHEAL Obs (percent of control),[6]; [21],78%
same,CHEAL Obs (percent of control),[6]; [22],10%
same,CHEAL Obs (percent of control),[6]; [23],45%
same,CHEAL Obs (percent of control),[6]; [24],65%
same,CHEAL Obs (percent of control),[6]; [25],0%
same,AMARE Obs (percent of control),[7]; [20],48%
same,AMARE Obs (percent of control),[7]; [21],63%
same,AMARE Obs (percent of control),[7]; [22],30%
same,AMARE Obs (percent of control),[7]; [23],47%
same,AMARE Obs (percent of control),[7]; [24],55%
same,AMARE Obs (percent of control),[7]; [25],55%
same,SETFA Obs (percent of control),[8]; [20],40%
same,SETFA Obs (percent of control),[8]; [21],60%
same,SETFA Obs (percent of control),[8]; [22],68%
same,SETFA Obs (percent of control),[8]; [23],40%
same,SETFA Obs (percent of control),[8]; [24],58%
same,SETFA Obs (percent of control),[8]; [25],60%
Nc1c(Cl)c(F)nc(OCC(=O)O)c1Cl [Fluroxypyr],SINAR Obs (scale 0 to 100),[9]; Fluroxypyr 62 g a.i./ha,75
same,SINAR Obs (scale 0 to 100),[9]; Fluroxypyr 125 g a.i./ha,75
same,PAPRH Obs (scale 0 to 100),[10]; Fluroxypyr 62 g a.i./ha,65
same,PAPRH Obs (scale 0 to 100),[10]; Fluroxypyr 125 g a.i./ha,73
same,CHEAL Obs (scale 0 to 100),[11]; Fluroxypyr 62 g a.i./ha,47
same,CHEAL Obs (scale 0 to 100),[11]; Fluroxypyr 125 g a.i./ha,58
same,VIOAR Obs (scale 0 to 100),[12]; Fluroxypyr 62 g a.i./ha,73
same,VIOAR Obs (scale 0 to 100),[12]; Fluroxypyr 125 g a.i./ha,82
same,AMARE Obs (scale 0 to 100),[13]; Fluroxypyr 62 g a.i./ha,67
same,AMARE Obs (scale 0 to 100),[13]; Fluroxypyr 125 g a.i./ha,77
same,POLCO Obs (scale 0 to 100),[14]; Fluroxypyr 62 g a.i./ha,68
same,POLCO Obs (scale 0 to 100),[14]; Fluroxypyr 125 g a.i./ha,75
same,STEME Obs (scale 0 to 100),[15]; Fluroxypyr 62 g a.i./ha,75
same,STEME Obs (scale 0 to 100),[15]; Fluroxypyr 125 g a.i./ha,83
same,MATCH Obs (scale 0 to 100),[16]; Fluroxypyr 62 g a.i./ha,60
same,MATCH Obs (scale 0 to 100),[16]; Fluroxypyr 125 g a.i./ha,65
same,SASKR Obs (scale 0 to 100),[17]; Fluroxypyr 62 g a.i./ha,75
same,SASKR Obs (scale 0 to 100),[17]; Fluroxypyr 125 g a.i./ha,75
same,GALAP Obs (scale 0 to 100),[18]; Fluroxypyr 62 g a.i./ha,80
same,GALAP Obs (scale 0 to 100),[18]; Fluroxypyr 125 g a.i./ha,85
same,KCHSC Obs (scale 0 to 100),[19]; Fluroxypyr 62 g a.i./ha,68
same,KCHSC Obs (scale 0 to 100),[19]; Fluroxypyr 125 g a.i./ha,73
COc1cc(OC)nc(NC(=O)NS(=O)(=O)c2ncccc2C(=O)N(C)C)n1 [Nicosulfuron],AMBTR Obs (percent of control),[1]; Nicosulfuron 15 g a.i./ha,100%
same,ZEAMD Obs (percent of control),[2]; [26],100%
same,ZEAMD Obs (percent of control),[2]; [27],100%
same,ZEAMD Obs (percent of control),[2]; [28],100%
same,ABUTH Obs (percent of control),[3]; [26],48%
same,ABUTH Obs (percent of control),[3]; [27],73%
same,ABUTH Obs (percent of control),[3]; [28],100%
same,POLPY Obs (percent of control),[4]; Nicosulfuron 15 g a.i./ha,28%
same,AMBEL Obs (percent of control),[5]; [26],95%
same,AMBEL Obs (percent of control),[5]; [27],100%
same,AMBEL Obs (percent of control),[5]; [28],100%
same,CHEAL Obs (percent of control),[6]; [26],95%
same,CHEAL Obs (percent of control),[6]; [27],72%
same,CHEAL Obs (percent of control),[6]; [28],53%
same,AMARE Obs (percent of control),[7]; [26],2%
same,AMARE Obs (percent of control),[7]; [27],2%
same,AMARE Obs (percent of control),[7]; [28],33%
same,SETFA Obs (percent of control),[8]; [26],15%
same,SETFA Obs (percent of control),[8]; [27],11%
same,SETFA Obs (percent of control),[8]; [28],7%
